What was measured:
[1] = Solubility of dolutegravir in types of potable water (FIG. 1); format: physicochemical; details: water with no ions present (purified water) vs other types of potable water
From the text: The solubility of dolutegravir is affected by the use of different types of potable water, for example purified water, tap water and different brands of bottled water (see FIG. 1). The reason for this difference in solubility is believed to be due to the presence of ions typically found in water. When water with no ions present (purified water) is used to disperse dolutegravir, the solubility of dolutegravir is increased and a significant bitter taste may be observed.

[2] = Dolutegravir solubility in the presence of monovalent and divalent ions; format: physicochemical; details: thermodynamic from solid, 20 mg in 12 ml
Description: Solubility was determined by dissolving 20 mg of dolutegravir into 12 ml of water containing the specified ion (see Table 1) at a concentration of 500 ppm.

SMILES: C[C@@H]1CCO[C@H]2Cn3cc(C(=O)NCc4ccc(F)cc4F)c(=O)c(O)c3C(=O)N12 [Dolutegravir, (4RX,12aS)-N-[(2,4-difluorophenyl)methyl]-7-hydroxy-4-methyl-6,8-dioxo-3,4,12,12a-tetrahydro-2H-pyrido[5,6]pyrazino[2,6-b][1,3]oxazine-9-carboxamide]
- solubility of dolutegravir [1]: increased
- solubility ([2]; aqueous buffer, water containing calcium ion 500 ppm): 30 µg/mL
- solubility ([2]; aqueous buffer, water containing magnesium ion 500 ppm): 210 µg/mL
- solubility ([2]; aqueous buffer, water containing potassium ion 500 ppm): 780 µg/mL
- solubility ([2]; aqueous buffer, water containing sodium ion 500 ppm): 460 µg/mL
- solubility ([2]; no ion (purified water)): 1200 µg/mL

Reference: patent US20230285307A1, “Dispersible Tablet Formulations Comprising Dolutegravir” (ViiV Healthcare Company, priority 2020, published 2023)
